By IC50 is commonly meant the concentration needed to halve the response being measured. In general, Ki refers to a measure of affinity in units of concentration, obtained from inhibition or displacement.

Data on twelve compounds can be found in patent US6843979B2, “4-haloethenylphenyl tropane:serotonin transporter imaging agents” (Emory University, priority 1999, dated 2005).

Where “and” joins values, the source holds several entries; their conditions need not be identical. Equal values may be shown once. Read-outs that look alike come from different tables or passages of the source.

One test deals with SERT. As to conditions: cited from earlier work.
Another test has as its target T1, human SERT (Homo sapiens, UniProt P31645).
T1 construct: expressed in transfected cells
The test can be described thus: Binding site competition, cells stably transfected with human SERT, [3H]citalopram. As to conditions: for Ki / SERT Ki: [3H]citalopram, transfected cell lines; for DAT/SERT selectivity / NET/SERT selectivity: ratio of Ki.

A further test addresses T2, human NET (Homo sapiens, UniProt P23975).
T2 construct: expressed in transfected cells
The test can be described thus: Binding site competition, cells stably transfected with human NET, [3H]nisoxetine. As to conditions: transfected cell lines.

Another test concerns the target T3, human DAT (Homo sapiens, UniProt Q01959).
T3 construct: expressed in transfected cells
The test can be described thus: Binding site competition, cells stably transfected with human DAT, [3H]WIN 35,428. The conditions noted are these: [3H]WIN 35428, transfected cell lines.

In test [1] the target is T4, 5-HTT (serotonin transporter site) (Homo sapiens, UniProt P31645).
T4 construct: expressed in transfected cells
The test can be described thus: Transporter affinity of N-alkyl ZIENT ligands in transfected cell lines, [3H]citalopram. The format is binding. The text has this: (§1) In order to determine whether any structural modifications of ZIENT, FEINT, and FEBrNT would still yield high selectivity and specificity for SERT similar to the results seen with ZIENT, FEINT, FEBrNT and FEClNT, various substitutions on the tropane nitrogen and the 2-beta carboxyester position were made and tested in in vitro binding studies.
(§2) These studies provide a variety of new compounds which can be used as imaging agents for visualizing the location and density of serotonin transporter by PET or SPECT imaging.

Test [2] addresses T5, DAT (dopamine transporter site) (Homo sapiens, UniProt Q01959).
T5 construct: expressed in transfected cells
The test can be described thus: Transporter affinity of N-alkyl ZIENT ligands in transfected cell lines, [125I]TRI-55. The format is binding.
Source text: as §1, §2

Test [3] has as its target T6, NET (norepinephrine transporter site) (Homo sapiens, UniProt P23975).
T6 construct: expressed in transfected cells
Description: Transporter affinity of N-alkyl ZIENT ligands in transfected cell lines, [3H]nisoxetine. The class given is binding.
Source text: as §1, §2

T5 sequence (Q01959 whole entry): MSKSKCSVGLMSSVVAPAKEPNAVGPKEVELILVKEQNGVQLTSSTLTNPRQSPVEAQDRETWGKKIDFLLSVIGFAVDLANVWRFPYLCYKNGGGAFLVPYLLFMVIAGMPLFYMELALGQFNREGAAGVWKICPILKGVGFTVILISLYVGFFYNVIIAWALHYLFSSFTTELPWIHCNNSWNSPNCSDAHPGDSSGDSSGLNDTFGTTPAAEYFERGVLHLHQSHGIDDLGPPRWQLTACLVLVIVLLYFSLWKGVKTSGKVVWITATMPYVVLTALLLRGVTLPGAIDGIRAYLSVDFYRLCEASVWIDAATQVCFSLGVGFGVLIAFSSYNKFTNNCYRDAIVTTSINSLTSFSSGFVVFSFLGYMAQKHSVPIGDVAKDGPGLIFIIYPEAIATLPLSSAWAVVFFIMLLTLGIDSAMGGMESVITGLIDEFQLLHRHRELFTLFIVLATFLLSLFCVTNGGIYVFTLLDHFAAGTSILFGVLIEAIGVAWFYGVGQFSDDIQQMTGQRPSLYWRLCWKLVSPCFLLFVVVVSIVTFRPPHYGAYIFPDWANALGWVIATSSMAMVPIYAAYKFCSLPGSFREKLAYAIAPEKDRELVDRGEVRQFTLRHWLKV
T3 sequence (Q01959 whole entry): as above
T6 sequence (P23975 whole entry): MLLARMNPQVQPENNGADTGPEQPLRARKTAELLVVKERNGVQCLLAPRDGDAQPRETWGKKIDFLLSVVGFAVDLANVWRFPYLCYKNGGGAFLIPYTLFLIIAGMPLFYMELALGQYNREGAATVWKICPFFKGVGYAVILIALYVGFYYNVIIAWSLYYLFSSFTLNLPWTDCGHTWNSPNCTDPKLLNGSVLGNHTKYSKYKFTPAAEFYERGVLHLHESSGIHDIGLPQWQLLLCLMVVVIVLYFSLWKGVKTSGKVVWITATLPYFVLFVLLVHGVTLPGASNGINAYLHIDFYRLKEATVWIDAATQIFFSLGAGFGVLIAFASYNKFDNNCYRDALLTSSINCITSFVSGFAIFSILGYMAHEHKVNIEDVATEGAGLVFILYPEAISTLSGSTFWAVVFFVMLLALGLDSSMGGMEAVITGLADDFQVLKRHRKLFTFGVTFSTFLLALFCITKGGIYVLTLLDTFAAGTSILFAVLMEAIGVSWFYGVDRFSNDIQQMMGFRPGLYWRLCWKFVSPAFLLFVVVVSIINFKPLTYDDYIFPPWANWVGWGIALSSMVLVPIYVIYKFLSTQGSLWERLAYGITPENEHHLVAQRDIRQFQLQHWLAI
T2 sequence (P23975 whole entry): as above
T4 sequence (P31645 whole entry): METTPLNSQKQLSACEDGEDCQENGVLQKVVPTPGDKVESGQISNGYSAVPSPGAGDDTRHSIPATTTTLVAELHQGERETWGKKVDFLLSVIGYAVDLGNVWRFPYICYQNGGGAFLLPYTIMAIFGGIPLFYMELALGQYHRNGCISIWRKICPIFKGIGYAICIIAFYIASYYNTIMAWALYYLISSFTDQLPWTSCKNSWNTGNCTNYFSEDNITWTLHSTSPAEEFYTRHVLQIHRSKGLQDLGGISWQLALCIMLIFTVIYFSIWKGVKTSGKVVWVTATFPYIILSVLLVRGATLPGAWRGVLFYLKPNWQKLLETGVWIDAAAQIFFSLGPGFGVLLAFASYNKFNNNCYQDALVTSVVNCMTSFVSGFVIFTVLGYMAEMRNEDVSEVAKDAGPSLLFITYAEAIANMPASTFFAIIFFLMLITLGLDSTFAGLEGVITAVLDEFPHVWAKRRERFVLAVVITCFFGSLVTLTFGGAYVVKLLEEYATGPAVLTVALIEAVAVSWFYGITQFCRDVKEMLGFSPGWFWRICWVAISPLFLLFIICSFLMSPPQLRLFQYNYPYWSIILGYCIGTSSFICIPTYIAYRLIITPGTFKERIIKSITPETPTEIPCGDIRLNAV
T1 sequence (P31645 whole entry): as above

With `COC(=O)[C@@H]1C2CCC(C[C@@H]1c1ccc(/C=C/I)cc1)N2` (some centres unmarked) [EINT], in the test with SERT, the “Selectivity for the SERT over the DAT” value is recorded as 500 times. Moreover, the IC50 in the test with SERT (vs [3H]WIN 35428 (so in the source)) was 0.69 nM. Besides, the Ki at human SERT is 1.15 nM; at human NET (read-out: NET Ki) it was 32 nM; on human DAT, 1.88 nM.

For the compound `COC(=O)C1C2CCC(CC1c1ccc(CCF)c(Br)c1)N2` (stereo not drawn) [FEBrNT, 2β-carbomethoxy-3β-(4-(2-fluoroethyl)-3-bromophenyl)nortropane], at human SERT, the Ki is 0.22 nM and 0.12 to 0.56 nM; the “SERT Ki” value is given as “subnanomolar”; the DAT/SERT selectivity was 100; the NET/SERT selectivity is recorded as 573. Affinity on human NET (NET Ki) was put at a Ki of 126 nM. The Ki on human DAT was 23.2 nM and 23 nM.

On to `COC(=O)C1C2CCC(CC1c1ccc(CCF)c(Cl)c1)N2` (stereo not drawn) [FEClNT, 2β-carbomethoxy-3β-(4-(2-fluoroethyl)-3-chlorophenyl)nortropane], for which, at human SERT, the Ki was 0.56 nM and 0.12 to 0.56 nM; the “SERT Ki” value was “subnanomolar”; the DAT/SERT selectivity came out at 48; the NET/SERT selectivity is 209. The compound further gave a Ki on human NET (NET Ki) of 117 nM. The compound further returned a Ki at human DAT of 27 nM.

With `COC(=O)C1C2CCC(CC1c1ccc(CCF)c(I)c1)N2` (stereo not drawn) [FEINT, 2β-carbomethoxy-3β-(4-(2-fluoroethyl)-3-iodophenyl)nortropane], on human SERT, the Ki is 0.1 nM and 0.12 to 0.56 nM; the “SERT Ki” value was “subnanomolar”; the DAT/SERT selectivity is 424 and 283; the NET/SERT selectivity is 649. In addition, the Ki on human NET (NET Ki) is 64.9 nM and 65 nM. In addition, the inhibition constant (Ki) on human DAT was 42.4 nM and 42 nM.

For the compound `COC(=O)C1C2CCC(CC1c1ccc(CCCF)c(I)c1)N2` (centres unmarked) [FPINT], the “SERT Ki” value on human SERT is reported as “subnanomolar”.

Turning to `COC(=O)[C@H]1[C@@H](c2ccc(C(C)=CF)cc2)C[C@@H]2CC[C@H]1N2` [IPPNT], at human SERT, the affinity, expressed as Ki, was 0.08 nM; the “SERT Ki” value was “subnanomolar”; the DAT/SERT selectivity is given as 37. Also, the Ki at human NET (read-out: NET Ki) worked out at 11.8 nM. This compound had a Ki at human DAT of 2.93 nM.

Turning to `COC(=O)C1C2CCC(CC1c1ccc(/C=C\CF)cc1)N2` (stereo not drawn) [Ligand Z-3-FPNT, 2β-carbomethoxy-3β-(4′(Z-3-fluoropropenyl)phenyl)-nortropane], at human SERT, the Ki was 0.1 nM and the DAT/SERT selectivity is given as 116. For the same compound, the Ki at human DAT was determined as 11.6 nM.

As to `COC(=O)C1C(c2ccc(C=CI)cc2)CC2CCC1N2CCF` (centres unmarked) [N-fluoroethyl ZIENT], the Ki in test [1] was determined as 1.28 nM; in test [2] it was 27 nM; in test [3], 21 nM.

As for `COC(=O)C1C(c2ccc(C=CI)cc2)CC2CCC1N2C` (centres unmarked) [N-methyl ZIENT], the Ki was determined as 0.48 nM in test [1], 33 nM in test [2] and 69 nM in test [3].

Compound `COC(=O)C1C2CCC(CC1c1ccc(I)cc1)N2` (stereo not drawn) [Nor-CIT, 2β-carbomethoxy-3β-(4-iodophenyl)nortropane, reference compound] yielded a Ki at human SERT of 0.12 nM.

For the compound `C=C(C)c1ccc(C2CC3CCC(N3)C2C(=O)OC)cc1` (stereo not drawn) [Nor-β-CIPPT, 2β-carbomethoxy-3β-(4′-isopropenylphenyl)nortropane], the “Selectivity for the SERT over the DAT” value with SERT is recorded as 38 times. In the test on SERT (vs [3H]paroxetine), the IC50 was 0.6 nM.

As for `COC(=O)C1C2CCC(CC1c1ccc(C=CI)cc1)N2` (centres unmarked) [ZIENT], the Ki in test [1] was 0.25 nM; at human SERT, 0.031 nM and 0.03 to 0.1 nM and 0.05 nM; at human NET (NET Ki) it was 24 nM; in test [2], 16 nM; in test [3] it was 64 nM; at human DAT, 3.47 nM. For the same compound, the “SERT Ki” value on human SERT was “subnanomolar”. The DAT/SERT selectivity at human SERT is 100 and 116. Further, the NET/SERT selectivity on human SERT stood at 484.
